# In patent US20260234159A1, “SMALL MOLECULE TREATMENT OF FATTY LIVER DISEASE AND HCC” (SCANDIEDGE THERAPEUTICS AB, priority 2023, published 2026):
# Where two headings read alike, the source gives them in different places.
# Assays:
# [1] = system: HepG2 cells; assay: Triglyceride (TAG) measurement assay, one week steatosis model; type: cell-based, human; details: Homo sapiens
# Outline: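 HepG2 cells steatosis-induced for one week in high-glucose DMEM/10% FBS with 10 μg/ml insulin and 10 μM T0901317, media changed at days 0, 3 and 5, with 10 μM test compound throughout. Triglyceride measured colorimetrically (OD 570 nm); viability by MTT.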
# [2] = In vivo toxicological study in rats: haematology; parameters: species or system rats of the Wistar strain
# Description: Forty-two male and forty-two female rats of the Wistar strain were allocated to the study. Three groups of three males and three females were given doses of 30, 100 and 300 mg/kg of target compounds (Table 8). The vehicle was 1.5 w/w % HPMC, 1.5 w/w % PS80 in 10 mM PBS, pH 7 and dose volume were 5 mL/kg. The animals were acclimatised at least 14 day prior to the study and exposed to a 12 hours light, 12 hours dark light cycle. The formulations were administered via oral gavage. Administration occurred once daily in the morning for seven consecutive days. Blood for scheduled haematology and plasma chemistry were taken at necropsy. For plasma chemistry, 0.6 ml blood (lithium heparin) per animal and for haematology, 0.5 ml blood (K2EDTA) per animal. The blood and plasma were analysed using Exigo analyzer and Vetscan equipment. Blood was analysed within 60 min of sampling. On the morning of analysis, the Exigo analyzer was checked against a reference sample provided by the manufacturer, and a control sample analysis cycle was performed (Table 9).
# [3] = system: HepG2 cells; assay: LDH cytotoxicity assay, time dependent; type: cell-based, human; details: 10 μM, up to 4 days
# Description: HepG2 cells were maintained and used with RPMI 1640 (R2405, Sigma-Aldrich) supplemented with 10% fetal bovine serum (F7524, Sigma-Aldrich), 1% P/S (P4333, Sigma-Aldrich). 20,000 cells per well of HepG2 cells were seeded into a 96-well plate and triplicated for MTT assay and LDH assay. Cell viability was measured by MTT assay (M6494, ThermoFisher) and cytotoxicity was measured by LDH assay kit (ab65393, abcam) by following manufacturer's instructions. Optical density (O.D) was numerated using a microplate reader (Hidex Sense Meta Plus).
# [4] = 168 h, HepG2, 10 μM, one week steatosis induce media, Control 100.00, read-out: TAG (%)
# [5] = HepG2, 168 h, ratio between TAG content and cell viability, Control 100.0, read-out: TAG/cell viability
# [6] = female, 30 mg/kg oral daily 7 d
# [7] = female, 100 mg/kg oral daily 7 d
# [8] = female, 300 mg/kg oral daily 7 d
structure (smiles),measurement,setting,value
"N#Cc1c(NC(=O)c2cccc3ccccc23)sc2c1CCCC2 [JNK-IN-5A, N-(3-cyano-4,5,6,7-tetrahydrobenzo[b]thiophen-2-yl)-1-naphthamide]",activity at 10 µM,[1]; [4],33%
same,activity at 10 µM,[1]; [5],58.4%
"COc1ccc(C(=O)Nc2sc3c(c2C#N)CCCCC3)cc1OC [PKL-A135, N-(3-cyano-5,6,7,8-tetrahydro-4H-cyclohepta[b]thiophen-2-yl)-3,4-dimethoxy-benzamide]",GRAN,[2]; [6],0.97 10^9/l
same,HCT,[2]; [6],41.7%
same,HGB,[2]; [6],14.2 g/dL
same,LYM,[2]; [6],5.4 10^9/l
same,MCH,[2]; [6],19.5 pg
same,MCHC,[2]; [6],34.1 g/dL
same,MCV,[2]; [6],57.4 fL
same,MONO,[2]; [6],0.17 10^9/l
same,PLT,[2]; [6],1014 10^9/l
same,RBC,[2]; [6],7.26 10^12/l
same,RDW %,[2]; [6],14.2%
same,WBC,[2]; [6],6.6 10^9/l
same,GRAN,[2]; [7],1.33 10^9/l
same,HCT,[2]; [7],42.1%
same,HGB,[2]; [7],14.4 g/dL
same,LYM,[2]; [7],6.7 10^9/l
same,MCH,[2]; [7],19.9 pg
same,MCHC,[2]; [7],34.1 g/dL
same,MCV,[2]; [7],58.4 fL
same,MONO,[2]; [7],0.27 10^9/l
same,PLT,[2]; [7],978 10^9/l
same,RBC,[2]; [7],7.21 10^12/l
same,RDW %,[2]; [7],13.7%
same,WBC,[2]; [7],8.3 10^9/l
same,GRAN,[2]; [8],1.10 10^9/l
same,HCT,[2]; [8],42.8%
same,HGB,[2]; [8],14.7 g/dL
same,LYM,[2]; [8],5.1 10^9/l
same,MCH,[2]; [8],20.8 pg
same,MCHC,[2]; [8],34.2 g/dL
same,MCV,[2]; [8],60.8 fL
same,MONO,[2]; [8],0.20 10^9/l
same,PLT,[2]; [8],1011 10^9/l
same,RBC,[2]; [8],7.04 10^12/l
same,RDW %,[2]; [8],13.8%
same,WBC,[2]; [8],6.4 10^9/l
same,GRAN,"[2]; male, 30 mg/kg oral daily 7 d",1.83 10^9/l
same,HCT,"[2]; male, 30 mg/kg oral daily 7 d",44.3%
same,HGB,"[2]; male, 30 mg/kg oral daily 7 d",15 g/dL
same,LYM,"[2]; male, 30 mg/kg oral daily 7 d",6.5 10^9/l
same,MCH,"[2]; male, 30 mg/kg oral daily 7 d",19.7 pg
same,MCHC,"[2]; male, 30 mg/kg oral daily 7 d",33.9 g/dL
same,MCV,"[2]; male, 30 mg/kg oral daily 7 d",58.2 fL
same,MONO,"[2]; male, 30 mg/kg oral daily 7 d",0.30 10^9/l
same,PLT,"[2]; male, 30 mg/kg oral daily 7 d",841 10^9/l
same,RBC,"[2]; male, 30 mg/kg oral daily 7 d",7.62 10^12/l
same,RDW %,"[2]; male, 30 mg/kg oral daily 7 d",14.1%
same,WBC,"[2]; male, 30 mg/kg oral daily 7 d",8.6 10^9/l
same,GRAN,"[2]; male, 100 mg/kg oral daily 7 d",1.17 10^9/l
same,HCT,"[2]; male, 100 mg/kg oral daily 7 d",43.2%
same,HGB,"[2]; male, 100 mg/kg oral daily 7 d",14.6 g/dL
same,LYM,"[2]; male, 100 mg/kg oral daily 7 d",6.1 10^9/l
same,MCH,"[2]; male, 100 mg/kg oral daily 7 d",19.6 pg
same,MCHC,"[2]; male, 100 mg/kg oral daily 7 d",33.7 g/dL
same,MCV,"[2]; male, 100 mg/kg oral daily 7 d",58.1 fL
same,MONO,"[2]; male, 100 mg/kg oral daily 7 d",0.17 10^9/l
same,PLT,"[2]; male, 100 mg/kg oral daily 7 d",815 10^9/l
same,RBC,"[2]; male, 100 mg/kg oral daily 7 d",7.43 10^12/l
same,RDW %,"[2]; male, 100 mg/kg oral daily 7 d",14.4%
same,WBC,"[2]; male, 100 mg/kg oral daily 7 d",7.4 10^9/l
same,GRAN,"[2]; male, 300 mg/kg oral daily 7 d",1.13 10^9/l
same,HCT,"[2]; male, 300 mg/kg oral daily 7 d",43.8%
same,HGB,"[2]; male, 300 mg/kg oral daily 7 d",14.9 g/dL
same,LYM,"[2]; male, 300 mg/kg oral daily 7 d",6.2 10^9/l
same,MCH,"[2]; male, 300 mg/kg oral daily 7 d",20.7 pg
same,MCHC,"[2]; male, 300 mg/kg oral daily 7 d",34 g/dL
same,MCV,"[2]; male, 300 mg/kg oral daily 7 d",60.9 fL
same,MONO,"[2]; male, 300 mg/kg oral daily 7 d",0.20 10^9/l
same,PLT,"[2]; male, 300 mg/kg oral daily 7 d",924 10^9/l
same,RBC,"[2]; male, 300 mg/kg oral daily 7 d",7.20 10^12/l
same,RDW %,"[2]; male, 300 mg/kg oral daily 7 d",14.0%
same,WBC,"[2]; male, 300 mg/kg oral daily 7 d",7.5 10^9/l
same,necrotic cell death (LDH),[3],pronounced necrotic cell death from day 1 to day 4
same,activity at 10 µM,[1]; [4],49.1%
same,activity at 10 µM,[1]; [5],77.6%
